Entries after “also recorded” stand apart in the source; their conditions may differ.
What was measured:
angiogenesis = assay: Matrigel deposit implant test for angiogenic activity (acceleration or inhibition), FGF1-induced; format: in vivo, mice; parameters: key to top score seen in Matrigel deposits: no + sign would yield a value of 0, as in A in FIG. 13; B in FIG. 13 would yield a score of +++; ++++: 0 to 4 plus (+) scale; conditions: for top score seen in Matrigel deposits: 0 to 4 plus (+) scale, only top level scores of the experiment
From the text: Matrigel deposits were surgically implanted on both sides of 4 mice per treatment yielding a possible 8 samples per treatment. Matrigel is a polymeric substance that appears to be relatively inert in animals and it can serve as a matrix that allows experimentation in vivo on many different difficult-to-study-processes. Prior to implantation, the Matrigel was allowed to imbibe fibroblast growth factor 1 (FGF1). This protein is a powerful inducer of angiogenesis and its presence guarantees that sufficient activity will be observed within the allotted time period of the experiment. Therefore, any inhibition of angiogenesis is likely to be a real phenomenon as the experiment has been set to heavily favor the angiogenic process. Angiogenesis occurs by day 14 and beginning Day 1 (Day 0=day of implantation), mice were injected IP daily with 20 μg of peptide in 100 μl of normal saline. The animals were sacrificed on Day 14, and each Matrigel deposit divided longitudinally and fixed in 10% buffered formalin. One of the halves of each Matrigel deposit was then sectioned. Read-out for this experiment was via histology, with semi-quantitative/qualitative counting of migration of cells and their subsequent assembly of lumenal structures within the Matrigel. This method allows us to observe the full physiologic spectrum of effects, and was useful in delineating trends. […] In FIG. 13, A represents what a section of a Matrigel gel deposit looks like under the microscope soon after surgical implantation. The sample in B is derived from the control at the conclusion of the experiment. Intense activity is present with numerous cells attaching to the surface of the Matrigel. Cells begin to penetrate the deposit and organize into discrete structures that coalesce to form the beginning of tubes twisting and branching in many directions. These venules eventually connect with the system carrying blood and it is possible to see red cells and lymphocytes within them. This process is called “arborization”, derived from the fact that the angiogenic process most closely resembles the growth of roots and branches of trees. All but two of the peptide treatments looked, more or less, like B (all the peptides of Table 1 were tested). In C, a typical sample from the peptide C-1 (SEQ ID NO: 24) treatment is shown. […] Consequently, there were far fewer cells and cellular structures inside of the Matrigel. […] There were large regions of Matrigel that had no visibly associated structures and few single cells, including on the periphery, while other regions had some limited activity.
This system ranks each sample using a 0 to 4 plus (+) scale. Thus, B in FIG. 13 would yield a score of +++ while no + sign would yield a value of 0, as in A in FIG. 13. In Table 3 the data is modified to a numerical form and plotted averages are shown.

[1] = tested on: Feline Immunodeficiency virus FIV; assay: Peptide treatment of a lion infected with FIV (CD4+/CD8+ cell counts); format: in vivo; conditions: weekly 70 mg I.M injections
From the text: Nasty is a male lion in North Carolina Zoological Park. He was diagnosed to suffer Feline Immunodeficiency virus FIV. FIV attacks the immune system of cats, much like the human immunodeficiency virus (HIV) attacks the immune system of human beings. FIV infects many cell types in its host, including CD4+ and CD8+T lymphocytes, B lymphocytes, and macrophages. FIV eventually leads to debilitation of the immune system in its feline hosts by the infection and exhaustion of T-helper (CD4+) cells.
Nasty was treated weekly with 70 mg I.M injections of JC15-10N.

arthritis = assay: Treatment of a patient with arthritis (x-ray of ankle joints); format: in vivo; conditions: 10 mg subcutaneous once a week for one month, then once a month
Description: A patient with arthritis was treated by subcutaneous injection of 10 mg once a week for one month and then once a month for maintenance doses. A visible indication of arthritis is calcification of joints.

tumors = assay: In vivo anti-tumor activity of injected peptide in animal tumor models
[2] = mice, 20 μg peptide IP daily, Day 14 histology

## IVRRADRAAVPIVNLKDELL [C-1]
angiogenesis; [2]
  angiogenic / anti-angiogenic activity in Matrigel deposits (in words): far fewer cellular associations; also recorded: possess anti-angiogenic activity

## FAKKFAKKFK [JC15-10N]
angiogenesis; [2]
  angiogenic / anti-angiogenic activity in Matrigel deposits (in words): possesses anti-angiogenic activity
[1]
  absolute CD4+ cell counts: stabilized the CD4+ cell counts
  absolute CD8+ cell counts: the cell counts began to rise
arthritis
  calcification of the ankle joints: disappeared

## FAKKFAKKFKKF [JC15-12N]
angiogenesis
  top score seen in Matrigel deposits: ++++
angiogenesis; [2]
  angiogenic / anti-angiogenic activity in Matrigel deposits (in words): levels of activity higher than the control; also recorded: cannot exert an anti-angiogenic effect; also recorded: does not inhibit angiogenesis

## FAKKFAKFAF [JC15-10C]
angiogenesis; [2]
  angiogenic / anti-angiogenic activity in Matrigel deposits (in words): inactive

## FAKKFAKKFKKFAKKFAKFAFAF [JC15]
angiogenesis; difference of mean score from Control (2.50)
  % Diff.: 4.00%
angiogenesis; mean of samples, mice, 20 μg peptide IP daily, Day 14, 0 to 4 plus scale
  angiogenic activity score, Mean: 2.60
angiogenesis; [2]
  angiogenic / anti-angiogenic activity in Matrigel deposits (in words): closer to the control; also recorded: cannot exert an anti-angiogenic effect
angiogenesis; mice, FGF1-imbibed Matrigel, 20 μg peptide IP daily, Day 14 histology, 0 to 4 plus scale, sample 1
  angiogenic activity score, Sample 1: 3
angiogenesis; mice, FGF1-imbibed Matrigel, 20 μg peptide IP daily, Day 14 histology, 0 to 4 plus scale, sample 2
  angiogenic activity score, Sample 2: 2
angiogenesis; mice, FGF1-imbibed Matrigel, 20 μg peptide IP daily, Day 14 histology, 0 to 4 plus scale, sample 3
  angiogenic activity score, Sample 3: 3
angiogenesis; mice, FGF1-imbibed Matrigel, 20 μg peptide IP daily, Day 14 histology, 0 to 4 plus scale, sample 4
  angiogenic activity score, Sample 4: 2
angiogenesis; mice, FGF1-imbibed Matrigel, 20 μg peptide IP daily, Day 14 histology, 0 to 4 plus scale, sample 5
  angiogenic activity score, Sample 5: 3
tumors; a few injections over a period of several days
  effect on tumors, peptide injected directly into the tumor: tumors are permanently eliminated
tumors; systemic activity, several animal tumor models, in some cases little activity
  effect on tumors, peptide injected in a site removed from the tumor: most of the tumors also disappeared

## KKFKKFAKKFAKFAF [JC15-15C]
angiogenesis
  top score seen in Matrigel deposits: ++++
angiogenesis; [2]
  angiogenic / anti-angiogenic activity in Matrigel deposits (in words): levels of activity higher than the control; also recorded: cannot exert an anti-angiogenic effect

## FAKKFAKKFKKFAKKFAK [JC15-18N]
angiogenesis; [2]
  angiogenic / anti-angiogenic activity in Matrigel deposits (in words): levels of activity higher than the control; also recorded: cannot exert an anti-angiogenic effect

— patent US20140329753A1, “Angiogenic active lytic peptides” (priority 2013, published 2014)
